# Measured values from patent US20260284009A1, “COMPOUNDS FOR NOS-RELATED CANCERS AND METHODS OF USE” (YISSUM RESEARCH DEVELOPMENT COMPANY OF THE HEBREW …, priority 2023, published 2026).
# Legend:
# [1] = tested on: U87-MG cells; experiment: Xenograft glioblastoma model, U87-MG cells in NSG mice: tumor volume and mass; assay type: in vivo
# Protocol: A xenograft glioblastoma model was generated by injecting 1.0×10^6 U87-MG cells (in PBS) into the subcutaneous tissue in the flank of NOD SCID Gamma (NSG) male (n=40) and female mice (n=5). Mice were 6-7 weeks old at time of injections. Mice were divided into groups and treatment was started when tumor volume reached 50 mm^3.
# An initial experiment was performed with two treatment groups of mice, the treatment groups were: 0.1% DMSO (“Vehicle”) (n=10) and 80 mg/kg of 7-NI (n=10). Treatments were administered intraperitoneally daily for 8 days. Treatment started after five days from the injection with U87-MG cells. After one month, all mice were euthanized, and tumors were harvested for ex vivo analysis and histology. Tumor volume was measured using calipers and was calculated as (length*width^2)/2. The tumor volume of all mice were tabulated, as well the best 4-5 mice in terms of treatment efficacy (smallest tumor volume).
# A dose response experiment was performed in the mice, the treatment groups were 0.1% DMSO (“Vehicle”) (n=8), 20 mg/kg 7-NI (n=8), 40 mg/kg 7-NI (n=8), and 80 mg/kg 7-NI (n=8). Treatments were administered intraperitoneally daily, for 14 days. Treatment started after five days from the injection with U87-MG cells. All mice were euthanized, and tumors were harvested for ex vivo analysis and histology. Tumor volume was measured using calipers and was calculated as (length*width^2)/2. The tumor volume of all mice were tabulated, as well the tumor mass.
# [2] = tested on: SH-SY5Y cells; experiment: NADPH-diaphorase staining of SH-SY5Y cells; assay type: cell-based, human; conditions: 7-NI treated vs untreated group
# Protocol: Human neuroblastoma (“NB”) SH-SY5Y cells were obtained from the American Type Culture Collection (ATCC) and maintained in Dulbecco's modified Eagle's medium (DMEM) and Ham's F-12 (1:1) supplemented with 10% fetal bovine serum, 2 mM L-glutamine, and 100 U/ml penicillin-G/[…] streptomycin in the humidified atmosphere (37° C., 5% CO2). Cells were plated onto 25 cm^2 and 75 cm^2 at a density of […] respectively for Western blotting (WB) and 1×10^5 for immunofluorescence. The SH-SY5Y cells were treated with 100 μM 7-nitroindazole (7-NI) for 24 hr. This concentration was confirmed in the dose-response experiment (FIG. 1) using an MTT viability assay.
# NADPH diaphorase staining were done using NBT as a chromogen and […] as a reductant to detect cells with NOS activity. Cells were cultured and treated as described previously in the immunofluorescence section. Then cells were fixed with 4% PFA for 30 min at room temperature in dark. After fixation, the cells were washed 2 times with PBS and then incubated in 0.2% Triton X-100 (in phosphate buffer) for 10 min. The cells were then incubated in […] NBT-NADPH solution for 2 h at 37C. The cells were washed twice with PBS and permanently mounted with DPX. Images were analyzed with a Nikon confocal TL microscope. […]
# [3] = tested on: U87-MG-xenografted mice; experiment: Survival of U87-MG-xenografted mice; assay type: in vivo; conditions: 80 or 120 mg/kg 7-NI daily, vs saline vehicle
# [4] = highest dosage of 7-NI (80 mg/kg) in dose response experiment, daily for 14 days, vs lower dosages
# [5] = reduced dosages, as low as 20 mg/kg 7-NI intraperitoneally daily for 14 days, vs vehicle
smiles,measurement,setting,value
"O=[N+]([O-])c1cccc2cn[nH]c12 [7-NI, 7-nitroindazole]",average tumor size,"[1]; NSG mice, 80 mg/kg 7-NI intraperitoneally daily for 8 days, vs vehicle",significantly smaller
same,average tumor size,[1]; [4],larger reduction
same,tumor mass,[1]; [4],larger reduction
same,average tumor size,[1]; [5],significantly smaller
same,tumor mass,[1]; [5],smaller
same,NADPH diaphorase staining,[2],decreased
same,survival,[3],increased survival
